# According to US12721853B2, “Applications of CX-5461 in treating immune rejection in renal transplantation” (Sun Yat-sen University, priority 2022, dated 2026):
# Legend:
# [1] = system: Pol I-driven rRNA transcription; conditions: cited from earlier work
# transplanted kidney = assay: H&E staining and immunohistochemical staining (anti-IL-17A) of transplanted kidney; format: in vivo, rat; conditions: seventh day after renal transplantation
# renal implants = assay: Appearance of the kidney graft, acute rejection model after renal transplantation in rats; format: in vivo, rat; conditions: seventh day after renal transplantation, CX5461 of 2 mg/kg, compared with acute rejection group (AR)
# Text: (§1) • (1) Lewis male rats and Brown Norway male rats are purchased from Beijing Vital River Laboratory Animal Technology Co., Ltd., with weight of around 200 g and age of 6-8 weeks old, and the rearing environment is of SPF level. • (2) Establishment of acute rejection model after renal transplantation in rats: the donor of Brown Norway male rats aged 6-8 weeks, about 200 g, is transplanted into Lewis male rats, and the surgical scheme is end-to-end renal vein anastomosis as reported in most literatures. The experimental groups are divided into normal group (Control) of donor rats, acute rejection (AR) group and drug group (CX5461 of 2 mg/kg) with 5 rats each. After successful renal transplantation, the rats are killed at 3 days, 5 days and 7 days after operation, and blood is collected from the lower abdominal aorta by using a 5 mL sterile syringe. […] Subsequently, the concentration and purity of total RNA are measured using a Nanodrop. Using the RNA as a template, reverse transcription is performed by reverse transcription kit of Beijing TransGen Biotech Company to obtain a cDNA template, and quantitative PCR analysis is carried out by using this cDNA as a template and using TransGen qPCR kit according to the instructions and the detection primers shown in Table 1 below.
# [2] = Creatinine and urea nitrogen levels in blood after renal transplantation; format: in vivo, rat
# Text: • (1) Lewis male rats and Brown Norway male rats are purchased from Beijing Vital River Laboratory Animal Technology Co., Ltd., with weight of around 200 g and age of 6-8 weeks old, and the rearing environment is of SPF level. • (2) Establishment of acute rejection model after renal transplantation in rats: the donor of Brown Norway male rats aged 6-8 weeks, about 200 g, is transplanted into Lewis male rats, and the surgical scheme is end-to-end renal vein anastomosis as reported in most literatures. The experimental groups are divided into normal group (Control) of donor rats, acute rejection (AR) group and drug group (CX5461 of 2 mg/kg) with 5 rats each. […] The collected blood is placed in a procoagulants tube at room temperature for 1 h, centrifuged at 4000 r/min in a centrifuge at 4° C. for 10 min, and the obtained serum is packaged in an EP tube and frozen at −80° C. for enzyme-linked immunosorbent assay (ELISA) detection. The removed transplanted kidney is cut in half along the longitudinal axis and soaked in 4% paraformaldehyde for pathological reaction verification. • (3) Real-time RT-PCR analysis: RNA is extracted from rat spleen by using Trizol method, and the specific operation is as follows: 1 mL of Trizol is added to the EP tube containing rat spleen and placed in the refrigerator at 4° C. for 10 min; then, porcelain beads are added into it and put into an automatic grinder, and ground at 4° C. for 5 min; 0.2 mL chloroform (i.e., ⅕ Trizol volume) is added into the EP tube, followed by shaking vigorously for about 20 times, then centrifuging at 12,500 rpm at 4° C. for 15 min; the obtained upper aqueous phase is placed in a new EP tube and carefully aspirated about 3 times with a 200 μL gun tip, and approximately an equal volume of isopropanol (i.e., 600 μL) is added, and the RNA is precipitated by centrifugation at 12,500 rpm for 15 min at 4° C., at which time a white RNA precipitate is seen. Then, 1 ml of 75% ethanol is added for washing twice, followed by centrifugation at 12500 rpm and 4° C. for 5 min. The supernatant is discarded and the precipitated RNA is allowed to dry naturally in an ultra-clean bench. RNA is obtained by dissolving the RNA precipitate with 100 μL of Rnase-free water. Subsequently, the concentration and purity of total RNA are measured using a Nanodrop. Using the RNA as a template, reverse transcription is performed by reverse transcription kit of Beijing TransGen Biotech Company to obtain a cDNA template, and quantitative PCR analysis is carried out by using this cDNA as a template and using TransGen qPCR kit according to the instructions and the detection primers shown in Table 1 below.
# Treg cells in the spleen = assay: CD4+CD25+Foxp3+ flow cytometry of spleen; format: in vivo, rat; conditions: seventh day after renal transplantation
# [3] = system: IL-6, IL-10 cytokines in serum; assay: ELISA of cytokines in serum after renal transplantation; format: in vivo, rat; conditions: seventh day after renal transplantation, compared with AR group, ***P<0.001
# Text: as §1, with “below. […]” for “below.”
# Pol II = conditions: cited from earlier work
# [4] = system: IL-6, IL-10, IL-17A cytokines in spleen; assay: Real-time RT-PCR of cytokines in spleen after renal transplantation; format: in vivo, rat; conditions: seventh day after renal transplantation, compared with AR group, ***P<0.001
# Text: as §1, with “syringe. The collected blood is placed in a procoagulants tube at room temperature for 1 h, centrifuged at 4000 r/min in a centrifuge at 4° C. for 10 min, and the obtained serum is packaged in an EP tube and frozen at −80° C. for enzyme-linked immunosorbent assay (ELISA) detection.” for “syringe.”
# [5] = Survival of rats after renal transplantation; format: in vivo, rat; conditions: compared with acute rejection group
# Text: as §1
# [6] = third, fifth and seventh day after renal transplantation, AR group continues to increase
# [7] = within 42 days after renal transplantation
smiles,measurement,setting,value
Cc1cnc(CNC(=O)c2c(=O)c3ccc(N4CCCN(C)CC4)nc3n3c2sc2ccccc23)cn1 [CX-5461],IC50,"[1]; HCT-116, A375, and MIA PaCa-2 cells, read-out: IC50, inhibition of Pol I-driven rRNA transcription",142 nM
same,selectivity of rRNA transcription inhibition over DNA replication and protein translation,[1],250- to 300 fold
same,IL-17A cytokine in kidney transplant (immunohistochemistry),transplanted kidney,reducing the levels of IL-17A cytokine
same,changes in renal tubules (H&E staining),transplanted kidney,no obvious changes in renal tubules
same,glomerulus shrinkage (H&E staining),transplanted kidney,no obvious shrinkage
same,infiltration of inflammatory cells (staining),transplanted kidney,no obvious infiltration of inflammatory cells
same,renal fibrosis (staining),transplanted kidney,reduced renal fibrosis
same,"inflammatory immune infiltration, appearance of the kidney graft",renal implants,no obvious inflammatory immune infiltration
same,"renal fibrosis, appearance of the kidney graft",renal implants,less renal fibrosis
same,creatinine level,[2]; [6],remain at a low level
same,urea nitrogen level,[2]; [6],remain at a low level
same,creatinine level,[2]; [7],remain at a relatively low level
same,urea nitrogen level,[2]; [7],remain at a relatively low level
same,proportion of Treg cells (CD4+CD25+Foxp3+) in the spleen,Treg cells in the spleen,obviously increased
same,IL-6 cytokine in serum,[3],significantly down-regulated
same,IL-10 cytokine in serum,[3],up-regulated
same,effect on Pol II,Pol II,no effect
same,IL-6 cytokine in spleen,[4],significantly down-regulated
same,IL-10 cytokine in spleen,[4],significantly up-regulated
same,IL-17A cytokine in spleen,[4],significantly down-regulated
same,survival time of rats after renal transplantation,[5],significantly longer
